For assay [1], the target named is T1, recombinant human pro-heparanase (H60) (Homo sapiens, UniProt Q9Y251).
T1 construct: Heparanase maturation involves the removal of the signal peptide, transforming the 65 kDa pre-pro-heparanase into a 60 kDa pro-heparanase; made in house
T1 sequence (Q9Y251 36-543): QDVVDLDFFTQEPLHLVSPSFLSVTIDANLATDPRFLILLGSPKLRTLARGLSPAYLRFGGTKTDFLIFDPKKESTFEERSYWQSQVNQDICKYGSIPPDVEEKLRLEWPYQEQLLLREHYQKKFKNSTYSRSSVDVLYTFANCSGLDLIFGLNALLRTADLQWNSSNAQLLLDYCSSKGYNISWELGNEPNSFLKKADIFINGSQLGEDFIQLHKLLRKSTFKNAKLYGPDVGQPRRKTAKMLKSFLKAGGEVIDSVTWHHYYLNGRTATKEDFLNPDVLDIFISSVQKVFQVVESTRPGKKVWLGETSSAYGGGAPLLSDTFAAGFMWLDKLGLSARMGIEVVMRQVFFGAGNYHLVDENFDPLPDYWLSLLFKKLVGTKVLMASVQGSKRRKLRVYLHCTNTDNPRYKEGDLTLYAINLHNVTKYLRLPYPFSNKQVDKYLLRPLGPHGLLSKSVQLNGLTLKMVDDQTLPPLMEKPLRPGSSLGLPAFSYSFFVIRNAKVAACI
Nature of the assay: Pro-heparanase (H60) activation in a cell-based assay. The conditions noted are these: inhibition of pro-heparanase activation in CHO cells; NI = no inhibition. As for the experimental part: Pro-heparanase (H60) activation in a cell-based assay: Chinese hamster ovary (CHO) cells were grown in complete F12 medium supplemented with 10% fetal calf serum (FCS). […] The plates were incubated for 24 hours in a 37° C. humidified incubator with 5% CO2. […] The plates were further incubated for additional 4 hours. The pro-heparanase was allowed to internalize by the cells and further processed to generate the active 53 kDa heparanase. At the end of the incubation, the cells were lysed by three consecutive cycles of freezing and thawing in a −80° C. freezer and a 37° C. shaker.
The rigidified compounds described herein were tested for inhibition of pro-heparanase activation in the cell-based assay described above.

The target of assay [2] is T2, vascular endothelial growth factor (VEGF) (Homo sapiens, UniProt P15692).
T2 sequence (P15692 27-191 isoform P15692-4): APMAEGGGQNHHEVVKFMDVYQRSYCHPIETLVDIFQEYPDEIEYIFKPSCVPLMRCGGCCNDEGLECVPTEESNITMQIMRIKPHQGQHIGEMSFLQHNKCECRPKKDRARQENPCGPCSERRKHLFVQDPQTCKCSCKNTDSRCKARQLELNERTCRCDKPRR
Put plainly: ELISA for determination of binding of VEGF to heparin. The conditions noted are these: for IC50: inhibition of VEGF binding to heparin, NI = no inhibition; for inhibition of VEGF binding to heparin: inhibition towards both growth factors. As for the experimental part: Enzyme-linked immunosorbent assay (ELISA) for determination of binding of vascular endothelial growth factor (VEGF) to heparin: 96-well microplates were coated for 2 hours. at 23-25° C. with 5 μg/ml heparin-albumin (Rimon Biotech) and blocked with 1% bovine serum albumin (BSA) in phosphate buffer (PBS) with 0.05% Tween and 0.01% thimerosal for 2 hours. VEGF was added to the plates at a concentration of 10 ng/ml and the plates were thereafter incubated for 45 minutes at 23-25° C. The amount of VEGF bound to heparin was detected using anti-VEGF monoclonal antibody (Sigma Cat. No. V4758) at a concentration of 0.26 μg/ml and secondary antibodies Sheep anti-mouse IgG linked to horseradish peroxidase (1:2000) using 3,3′,5,5′-tetramethylbenzidine (TMB, Pierce Cat. No. 34021) as a substrate for peroxidase. The plates were read at 450 nm with a reference wavelength of 630 nm using a VERSAmax plate reader. […] Percent inhibition was calculated as compared with a control pre-incubated with a solution of 1% DMSO and the results are presented in Table 3 below.
In general terms: ELISA stands for enzyme-linked immunosorbent assay.

Another assay deals with β-FGF (Homo sapiens, UniProt P09038). Nature of the assay: ELISA for determination of binding of β-FGF to heparin. The note with it: for IC50: inhibition of β-FGF binding to heparin, NI = no inhibition; for inhibition of β-FGF binding to heparin: inhibition towards both growth factors. As for the experimental part: ELISA for determination of binding of β-FGF to heparin: 96-well microplates were coated for 2 hours at 23-25° C. with 5 μg/ml heparin-albumin (Rimon Biotech) and blocked with 1% BSA in PBS, with 0.05% Tween, and 0.01% thimerosal for 2 hours. β-FGF was added to the plates at a concentration of 10 ng/ml and plates were incubated for 45 minutes at 23-25° C. The amount of β-FGF bound to heparin was detected using anti-FGF monoclonal antibody (Sigma Cat. No. F6162) at a concentration of 2.5 ng/ml and secondary antibodies Sheep anti-mouse IgG linked to horseradish peroxidase (1:3000) TMB (Pierce Cat. No. 34021) was used as a substrate for peroxidase. The plates were read at 450 nm with a reference wavelength of 630 nm using a VERSAmax plate reader.
Chain of β-FGF (P09038 143-288): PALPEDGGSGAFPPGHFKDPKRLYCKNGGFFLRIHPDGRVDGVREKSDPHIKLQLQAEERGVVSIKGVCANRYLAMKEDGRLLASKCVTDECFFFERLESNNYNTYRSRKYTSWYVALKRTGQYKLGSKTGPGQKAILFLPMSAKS

The text below walks through data of patent publication US7795255B2, “Rigidified compounds for modulating heparanase activity” (InSight Biopharmaceuticals Ltd., priority 2005, dated 2010).

Turning to “4-[2-(4-Nitro-phenyl)-4,6-dioxo-6H-1-oxa-3b,5-diaza-cyclopenta[a]pentalen-5-yl]-butyric acid ethyl ester [Compound 30]”, the IC50 (in general, the concentration that inhibits the measured activity by half) in assay [1] is 3.9 µM; in assay [2], 0.1 µM.

In the case of `CCOC(=O)CCCN1C(=O)c2cc3oc(-c4ccc([N+](=O)[O-])cc4)cc3n2C1=S` [Compound 1, ethyl 4-[2-(4-nitro-phenyl)-6-oxo-4-thioxo-6H-1-oxa-3b,5-diaza-cyclopenta[a]pentalen-5-yl]-butyric acid ethyl ester], the half-inhibitory concentration (IC50) on β-FGF stood at 0.14 µM; in assay [2], 0.13 µM.

Regarding `CON(C)C(=O)CCCN1C(=O)c2cc3oc(-c4ccc([N+](=O)[O-])cc4)cc3n2C1=S` [Compound 3, N-methoxy-N-methyl-4-[2-(4-nitro-phenyl)-6-oxo-4-thioxo-6H-1-oxa-3b,5-diaza-cyclopenta[a]pentalen-5-yl]-butyramide], on β-FGF, the IC50 was determined as 0.09 µM and the “inhibition of β-FGF binding to heparin” value is on record as “sub-micromolar”. For the same compound, in assay [2], the half-inhibitory concentration (IC50) was 0.25 µM and the “inhibition of VEGF binding to heparin” value is “sub-micromolar”.

Take `CCOC(=O)CCCN1C(=O)c2cc3oc(-c4ccc(Cl)cc4)cc3n2C1=S` [Compound 4, ethyl 4-[2-(4-chloro-phenyl)-6-oxo-4-thioxo-6H-1-oxa-3b,5-diaza-cyclopenta[a]pentalen-5-yl]-butyric acid ethyl ester]: the half-maximal inhibitory concentration (IC50) in assay [1] was 0.76 µM; at β-FGF it was 0.06 µM; in assay [2], 0.13 µM.

With `CCOC(=O)CC(C)(C)CN1C(=O)c2cc3oc(-c4ccc([N+](=O)[O-])cc4)cc3n2C1=S` [Compound 7, 3,3-dimethyl-4-[2-(4-nitro-phenyl)-6-oxo-4-thioxo-6H-1-oxa-3b,5-diaza-cyclopenta[a]pentalen-5-yl]-butyric acid ethyl ester], the IC50 in assay [1] was 2.6 µM. In addition, at β-FGF, the half-inhibitory concentration (IC50) was found to be 0.05 µM and the “inhibition of β-FGF binding to heparin” value is listed as “sub-micromolar”. Also, in assay [2], the IC50 amounted to 0.1 µM and the “inhibition of VEGF binding to heparin” value was “sub-micromolar”.

Consider `CC(C)(CC(=O)O)CN1C(=O)c2cc3oc(-c4ccc([N+](=O)[O-])cc4)cc3n2C1=S` [Compound 8, 3,3-Dimethyl-4-[2-(4-nitro-phenyl)-6-oxo-4-thioxo-6H-1-oxa-3b,5-diaza-cyclopenta[a]pentalen-5-yl]-butyric acid], for which the IC50 in assay [1] came out at 0.78 µM.

In the case of `CC(C)(CC(=O)NO)CN1C(=O)c2cc3oc(-c4ccc([N+](=O)[O-])cc4)cc3n2C1=S` [Compound 9, N-hydroxy-3,3-dimethyl-4-[2-(4-nitro-phenyl)-6-oxo-4-thioxo-6H-1-oxa-3b,5-diaza-cyclopenta[a]pentalen-5-yl]-butyramide], the IC50 in assay [1] is 0.17 µM.

`CCOC(=O)CC(C)(C)CN1C(=O)c2cc3oc(-c4ccc(Cl)cc4)cc3n2C1=S` [Compound 10, 4-[2-(4-Chloro-phenyl)-6-oxo-4-thioxo-6H-1-oxa-3b,5-diaza-cyclopenta[a]pentalen-5-yl]-3,3-dimethyl-butyric acid ethyl ester]: the IC50 in assay [1] worked out at 1.5 µM. Further, at β-FGF, the concentration for half-maximal inhibition (IC50) amounted to 0.2 µM and the “inhibition of β-FGF binding to heparin” value is “sub-micromolar”. In assay [2], the 50% inhibitory concentration (IC50) came out at 0.17 µM and the “inhibition of VEGF binding to heparin” value is given as “sub-micromolar”.

For `CC(C)(CC(=O)On1nnc2ccccc2c1=O)CN1C(=O)c2cc3oc(-c4ccc(Cl)cc4)cc3n2C1=S` [Compound 12, 4-[2-(4-Chloro-phenyl)-6-oxo-4-thioxo-6H-1-oxa-3b,5-diaza-cyclopenta[a]pentalen-5-yl]-3,3-dimethyl-butyric acid 4-oxo-4H-benzo[d][1,2,3]triazin-3-yl ester], at β-FGF, the IC50 is 0.16 µM and the “inhibition of β-FGF binding to heparin” value is recorded as “sub-micromolar”. Moreover, in assay [2], the IC50 stood at 0.26 µM and the “inhibition of VEGF binding to heparin” value is given as “sub-micromolar”.

Turning to `CCN(CC)C(=O)CC(C)(C)CN1C(=O)c2cc3oc(-c4ccc(Cl)cc4)cc3n2C1=S` [Compound 13, 4-[2-(4-Chloro-phenyl)-6-oxo-4-thioxo-6H-1-oxa-3b,5-diaza-cyclopenta[a]pentalen-5-yl]-N,N-diethyl-3,3-dimethyl-butyramide], in assay [1], the IC50 turned out to be 1.4 µM. Moreover, at β-FGF, the 50% inhibitory concentration (IC50) came out at 0.22 µM and the “inhibition of β-FGF binding to heparin” value is “sub-micromolar”. Further, in assay [2], the IC50 is 0.55 µM and the “inhibition of VEGF binding to heparin” value is given as “sub-micromolar”.

In the case of `CN(C)CCNC(=O)CC(C)(C)CN1C(=O)c2cc3oc(-c4ccc(Cl)cc4)cc3n2C1=S` [Compound 14, 4-[2-(4-Chloro-phenyl)-6-oxo-4-thioxo-6H-1-oxa-3b,5-diaza-cyclopenta[a]pentalen-5-yl]-N-(2-dimethylamino-ethyl)-3,3-dimethyl-butyramide], in assay [1], the IC50 was 0.12 µM. At β-FGF, the IC50 was determined as 0.47 µM and the “inhibition of β-FGF binding to heparin” value is recorded as “sub-micromolar”. Also, in assay [2], the IC50 was determined as 0.26 µM and the “inhibition of VEGF binding to heparin” value is reported as “sub-micromolar”.

Turning to `CCOP(=O)(CCCN1C(=O)c2cc3oc(-c4ccc(Cl)cc4)cc3n2C1=S)OCC` [Compound 27, {3-[2-(4-chloro-phenyl)-6-oxo-4-thioxo-6H-1-oxa-3b,5-diaza-cyclopenta[a]pentalen-5-yl]-propyl}-phosphonic acid diethyl ester], the half-inhibitory concentration (IC50) in assay [1] is 0.26 µM; in assay [2], 0.3 µM.

For `CCOC(=O)CCCN1C(=O)c2cc3oc(Oc4ccc([N+](=O)[O-])cc4)cc3n2C1=S` [Compound 33, ethyl 4-[2-(4-nitro-phenoxy)-6-oxo-4-thioxo-6H-1-oxa-3b,5-diaza-cyclopenta[a]pentalen-5-yl]-butyric acid ethyl ester], in assay [1], the IC50 amounted to 16 µM.

In the case of `CCOC(=O)CCCN1C(=O)c2cc3oc4ccc([N+](=O)[O-])cc4c3n2C1=S` [Compound 38, ethyl 4-[2,3-(3-nitro-phenyl)-6-oxo-4-thioxo-6H-1-oxa-3b,5-diaza-cyclopenta[a]pentalen-5-yl]-butyric acid ethyl ester], the concentration for half-maximal inhibition (IC50) on β-FGF is 11.5 µM; in assay [2] it was 22.5 µM.

Take `CCOC(=O)CCCn1c(=S)sc2c(N)snc21` [Compound 43, ethyl 4-(3-amino-5-thioxo-thiazolo[4,5-c]isothiazol-6-yl)-butyric acid ethyl ester]: in assay [1], the IC50 worked out at 25 µM.

For `CCOC(=O)CCCn1c(=S)sc2c(I)snc21` [Compound 44, ethyl 4-(3-iodo-5-thioxo-thiazolo[4,5-c]isothiazol-6-yl)-butyric acid ethyl ester], the IC50 in assay [1] turned out to be 7 µM.

Regarding `CCOC(=O)CCCn1c(=S)sc2c(-c3ccc(-c4ccc([N+](=O)[O-])cc4)o3)snc21` [Compound 45, 4-{3-[5-(4-nitro-phenyl)-furan-2-yl]-5-thioxo-thiazolo[4,5-c]isothiazol-6-yl}-butyric acid ethyl ester], the IC50 in assay [2] was found to be 15 µM.
